Laboratory results reported in patent publication US5434295A (priority 1994, dated 1995).
Entries after “also recorded” stand apart in the source; their conditions may differ.

Experiments:
[1] = Lipophilicity / solubility (statement); type: physicochemical
Experimental: Sci., 82, 1069-1079 (1993).
Several NMDA receptor blockers were tested. These compounds have […] and have to be dissolved in 100% dimethyl sulfoxide (DMSO) and diluted for use in ND-96 that contained 1% DMSO. Therefore, the effect of 1% DMSO on the response to 10^-4 M NMDA and 5×10^-6 M glycine was examined. DMSO had no effect on NMDA response in three different cells.

GABA receptors = assay: Effect on GABA responses in oocytes; type: biochemical, rat
[2] = test system: voltage-dependent P-type calcium channels; assay: Inhibition of voltage-dependent P-type calcium channels expressed in oocytes; type: biochemical, rat
[3] = test system: acetylcholine-muscarinic receptor; type: binding, rat; settings: 100 μM analogue
[4] = test system: cerebral ischemia in gerbils; assay: Neurobehavioral scores in gerbils after bilateral common carotid artery occlusion; type: in vivo, Mongolian gerbils
Source text: Inhibition of ischemic neuronal damage in gerbils: Temporary blockage of the blood supply to the gerbil brain by surgical ligation of the two major arteries (common carotids) results in transient global forebrain ischemia. Temporary global ischemia produces a delayed, selective degeneration of neurons in the hippocampus, a brain structure essential for memory formation. The ability of various compounds to prevent hippocampal cell loss and the attendant memory deficits is considered a measure of their potency as neuroprotectants in ischemic conditions.
The data are presented as average differential scores between the initial score obtained 5 hrs post-ischemia and that obtained on each successive day. The drug was administered intravenously 30 min post-ischemia.
Mongolian gerbils (male), 65-70 gr (Tumblebrook Farm) underwent the ischemic procedure while anaesthetised with equithisine.
Common carotid arteries (CCA) were isolated and 3-0 silk suture material was positioned loosely round them. The tips of each loop were tied together, and the suture material was buried beside the trachea. The ventral neck incision was then sutured. In the following day, they were lightly anaesthetised with ether, the neck skin wounds were opened and both CCA were occluded for 10 minutes using small artery clips. During the ischemia and until the animals recovered (regaining righting reflexes), they were maintained in a warm state (36.5°-37.5° C. rectal temperature). Thirty minutes following onset of ischemia, animals were reanaesthetised (ether) and the appropriate drug was administered I.V. via the femoral vein.
Clinical evaluation. […] This was done every 24 hours, for the entire 96-hour period. […]
Statistics. Neuroclinical appearance was analyzed using Wilcoxon Rank Sum Test. The histopathological evaluation was analyzed using One-Way ANOVA followed by Duncan's Test.
Gerbils were scored for their clinical symptoms following the ischemic insult according to the system described by Rudolphi et al. (Table 4). Each animal was evaluated daily over 4 consecutive days (Day 1 being the day of CCA occlusion). […]

hypobaric anoxia in mice = assay: Survival of mice exposed to hypobaric anoxia; type: in vivo; settings: 200 mmHg, 5 mg/kg i.p. in MCT oil, 45 min before
Experimental: Protection against hypobaric anoxia in mice: Exposure of mice to a hypobaric (200 mmHg) atmosphere reduces the amount of oxygen available to the animals and results in death within 1-2 minutes in untreated mice. Pretreatment with compounds that can counteract the effects of oxygen deprivation prolong (double or more) the survival time of mice subjected to this treatment. The increase in survival time is a measure of the potency of the compounds in counteracting anoxic damage in vivo.
Hypobaric Anoxia was used as a system for testing the neuroprotective effects of test compounds, HU-270 and HU-271. The experimental paradigm was derived from that described by Gotti and Depoortere, Congres de Circ. Cerebrale, Toulouse, 105-107 (1979). Briefly, mice in groups of 5 were placed in a chamber which was equilibrated at an atmospheric pressure of 200 mmHg (by evacuation via a vacuum pump). The mice were observed until they stopped breathing and the time was recorded for each mouse. The test compounds were administered 45 min before introducing the animals into the chamber. In all cases the experiment was performed in a masked vehicle controlled study to avoid bias on the part of the observer. Each mouse received the drug dissolved in MCT oil intraperitoneally at a dose of 5 mg/kg, or the vehicle alone (MCT oil, 5 ml/kg).

[5] = test system: quisqualate-induced toxicity in primary cerebral cortical cell cultures; assay: Protection of cortical neurons in culture from quisqualate-induced toxicity; type: cell-based; settings: Rattus norvegicus, Cortical neurone; 10 μM compound; quisqualate 500 μM; read-out: % of cells rescued from quisqualate-induced toxicity
Experimental: The neuroprotective effects of the compounds of the invention were tested on neurons exposed to various excitotoxins in culture. The compounds tested included HU-259, HU-260, HU-270 and HU-271, which were all shown to have NMDA antagonist properties in mice (Example 13).
The test drugs were examined for their ability to protect neurons in culture from toxic effects of agonists of the different glutamate receptor subtypes (agonists of ionotropic and/or metabotropic glutamate receptors), e.g. NMDA, AMPA, kainate and quisqualate. The culture conditions and assay conditions were all performed as described in Eshhar et al. (NeuroReport 5, No. 3, 1993). In brief, primary cerebral cortical cell cultures were prepared from 18-20 day old rat fetuses by enzymatic dissociation. Resulting cell suspensions were plated on confluent cortical glial cell feder layer (prepared 2 weeks earlier by a similar method). […] Cell viability was determined morphologically following neuron specific enolase immunostaining of cells using the ABC biotin-avidin complex method, and determined quantitatively by measuring the extent of mitochondrial activity in living cells using the XTT-based assay. […] The density of color formation (O.D.), which is proportional to mitochondrial activity, was measured by a plate ELISA reader. The extent of neuroprotectant activity is expressed as % of cells rescued by the drugs tested.

Structure (SMILES)	lipophilicity [1]	effect on GABA responses (GABA receptors)	inhibition of activity of voltage-dependent P-type calcium channels [2]	% inhibition of tritiated ligand binding to membranes, 3[H]QNB [3] [%]	neurobehavioral scores / clinical symptoms ([4]; 8 mg/kg i.v. 30 min post-ischemia)	animals showing no signs ([4]; three days post-ischemia) [%]	animals showing only mild signs ([4]; three days post-ischemia) [%]	survival of mice exposed to hypobaric anoxia (hypobaric anoxia in mice)	inhibition at 10 µM [5] [%]
CCCCCCC(C)(C)c1cc(OC(C)=O)c([C@H]2C=C(C(=O)O)[C@H]3C[C@@H]2C3(C)C)c(OC(C)=O)c1 [(+)-4-[4-DMH-2,6 diacetoxyphenyl]-2-carboxy-6,6-dimethylbicyclo[3.1.1]hept-2-en]	very lipophilic	no effect	did not inhibit	98.0	improvement in neurobehavioral scores; also recorded: statistically significant improvement compared to controls	90	10		
CCCCCCC(C)(C)c1cc(OC(C)=O)c([C@H]2C=C(C(=O)N(CC)CC)[C@H]3C[C@@H]2C3(C)C)c(OC(C)=O)c1 [HU-270]								increased survival; also recorded: statistically significant increase of survival time	
CCCCCCC(C)(C)c1cc(OC(C)=O)c([C@H]2C=C(C(=O)NCCO)[C@H]3C[C@@H]2C3(C)C)c(OC(C)=O)c1 [HU-271]				98.3				increased survival; also recorded: statistically significant increase of survival time	37
